Measurements from paper PMC12692861, “Biotin-Linked Ursolic Acid Conjugates as Selective Anticancer Agents and Target-Identification Tools for Cancer Therapy” (Molecules, 2025).

Key:
Experiment in all cases: Streptavidin pulldown proteomics (LC-MS/MS), 5637 cells
Settings in all cases: 5637, 50 µM
[1] = tested on: Coiled-coil domain-containing protein; assay type: binding, human
Method: (§1) We used proteomics to identify potential molecular targets of 5c. A pulldown assay with streptavidin-agarose-coated magnetic beads was performed. Briefly, 5637 and MB49 cells were incubated with 50 µM 5c for 10 min and 1 h. After incubation, the cells were rinsed three times with cold phosphate-buffered saline (PBS), and cell lysates were prepared and clarified by centrifugation to remove cellular debris, including nuclei. The clarified lysates were incubated with streptavidin-coated magnetic beads to selectively bind biotinylated contents. Bound proteins were separated from unbound proteins through thorough bead washing. Proteins attached to the beads were eluted and analyzed on an Orbitrap Fusion Tribrid mass spectrometer (Thermo Scientific, New York, NY, USA) coupled with an Ultimate 3000 nano-UPLC system. Samples were trapped on a PepMap100 C18 trap column (5 µm, 0.3 × 5 mm) and separated on a PepMap RSLC C18 column (2 µm, 75 µm × 150 mm) using a gradient from 2 to 40% acetonitrile with 0.1% formic acid over 120 min at […] and 40 °C. MS data were acquired in positive mode using data-dependent acquisition (DDA), with precursor scans at 120,000 FWHM (400–2000 m/z), and MS/MS scans in top-speed mode (3 s cycle) using HCD fragmentation (NCE 32%). Proteins were identified and quantified based on peptide spectral matches (PSMs), and fold enrichment compared to controls was calculated to evaluate interaction strength.
(§2) The 5637 and MB49 cells were cultured and treated with higher concentrations of 5c (50 µM) for short period of times (10 min & 60 min) followed by whole cell lysis (WCL) preparation of both treated and untreated cells using modified RIPA buffer [NaCl (100mM), TrisCl (20mM, pH 7.4), EDTA (10 mM), TritonX-100 (0.5%), Glycerol (5%), Protease inhibitor cocktail (1x)] with gentle continuous rotation. The protein content of each WCL was estimated using Pierce™ BCA Protein Assay kit (Thermo-Scientific # 23225). The 100 µL of resuspended Dynabeads™ MyOne™ Streptavidin C1 (Invitrogen # 65001) were washed with PBST (PBS with 0.01% Tween™20) in a magnet stand as recommended in the manufacturer’s instructions. The washed beads were incubated with 200 µg of each WCL in separate tubes at room temperature for 2 h in a gentle end-over-end mixing. After incubation, beads were washed 3–5 times with PBST (0.01% Tween-20) on a magnetic stand and beads were decanted by after spinning and magnetization. The samples were stored at −80 °C till further analysis using LC-MS/MS by the Proteomics and Mass Spectrometry Core Laboratory of Augusta University.

DNA topoisomerase = assay type: binding, human
Method: as §1, §2

[2] = tested on: Eukaryotic initiation factor 4A (eIF4A); assay type: binding, human
Method: as §1, §2

[3] = tested on: Eukaryotic translation initiation factor 2 (eIF2); assay type: binding, human
Method: as §1, §2

ATP synthase subunit O = ATP synthase subunit O (Homo sapiens, UniProt P48047); assay type: binding
Method: as §1, §2

[4] = target: ATP synthase subunit alpha (Homo sapiens, UniProt P25705); assay type: binding
Method: as §1, §2

[5] = target: ATP synthase subunit beta (Homo sapiens, UniProt P06576); assay type: binding
Method: as §1, §2

[6] = target: Elongation factor 1-delta (EF1δ) (Homo sapiens, UniProt P29692); assay type: binding
Method: as §1, §2

HSP 90-alpha (HSP90α) = HSP 90-alpha (HSP90α) (Homo sapiens, UniProt P07900); assay type: binding
Method: as §1, §2

HSP 90-beta (HSP90β) = HSP 90-beta (HSP90β) (Homo sapiens, UniProt P08238); assay type: binding
Method: as §1, §2

[7] = target: Heterogeneous nuclear ribonucleoprotein U (HNRNPU) (Homo sapiens, UniProt Q00839); assay type: binding
Method: as §1, §2

[8] = target: Histone H2A type 2-C (HIST2H2AC) (Homo sapiens, UniProt Q16777); assay type: binding
Method: as §1, §2

Histone H2A.Z = Histone H2A.Z (Homo sapiens, UniProt P0C0S5); assay type: binding
Method: as §1, §2

[9] = target: Rab-like protein 6 (RABL6) (Homo sapiens, UniProt Q3YEC7); assay type: binding
Method: as §1, §2

[10] = target: Ras GTPase-activating-like protein IQGAP1 (Homo sapiens, UniProt P46940); assay type: binding
Method: as §1, §2

[11] = target: Receptor of activated protein C kinase 1 (RACK1) (Homo sapiens, UniProt P63244); assay type: binding
Method: as §1, §2

[12] = target: T-complex protein 1 subunit theta (Homo sapiens, UniProt P50990); assay type: binding
Method: as §1, §2

Chain of HSP 90-beta (HSP90β) (P08238 whole entry): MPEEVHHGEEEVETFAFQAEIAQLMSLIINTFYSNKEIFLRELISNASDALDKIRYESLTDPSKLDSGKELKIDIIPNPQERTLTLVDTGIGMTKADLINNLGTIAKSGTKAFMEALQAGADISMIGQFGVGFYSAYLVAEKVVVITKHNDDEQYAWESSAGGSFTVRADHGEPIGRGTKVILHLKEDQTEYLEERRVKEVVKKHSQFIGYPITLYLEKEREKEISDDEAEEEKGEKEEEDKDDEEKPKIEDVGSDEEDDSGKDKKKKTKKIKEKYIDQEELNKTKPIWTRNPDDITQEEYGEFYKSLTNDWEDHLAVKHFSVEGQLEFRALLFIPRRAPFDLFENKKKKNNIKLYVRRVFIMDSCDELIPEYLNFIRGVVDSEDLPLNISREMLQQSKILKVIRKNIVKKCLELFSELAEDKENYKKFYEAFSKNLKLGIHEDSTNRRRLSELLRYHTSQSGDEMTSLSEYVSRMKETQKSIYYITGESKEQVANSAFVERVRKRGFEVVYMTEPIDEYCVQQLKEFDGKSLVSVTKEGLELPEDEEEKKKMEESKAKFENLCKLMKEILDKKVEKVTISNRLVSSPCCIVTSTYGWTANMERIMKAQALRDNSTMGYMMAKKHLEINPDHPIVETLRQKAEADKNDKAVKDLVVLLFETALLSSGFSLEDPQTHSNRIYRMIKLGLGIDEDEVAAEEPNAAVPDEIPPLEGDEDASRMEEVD
Chain of Histone H2A.Z (P0C0S5 whole entry): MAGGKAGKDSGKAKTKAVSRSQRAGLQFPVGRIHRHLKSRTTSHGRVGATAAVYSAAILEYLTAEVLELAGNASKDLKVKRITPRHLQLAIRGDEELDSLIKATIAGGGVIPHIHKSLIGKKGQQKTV
Chain of Elongation factor 1-delta (EF1δ) (P29692 whole entry): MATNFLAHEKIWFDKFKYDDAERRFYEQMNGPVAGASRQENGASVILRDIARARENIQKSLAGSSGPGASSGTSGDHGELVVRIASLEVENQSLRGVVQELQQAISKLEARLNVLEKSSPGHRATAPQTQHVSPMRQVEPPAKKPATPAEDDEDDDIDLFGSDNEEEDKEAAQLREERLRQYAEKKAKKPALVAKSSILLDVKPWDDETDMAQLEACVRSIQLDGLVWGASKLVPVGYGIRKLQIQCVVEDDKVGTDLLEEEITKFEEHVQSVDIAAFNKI
Chain of Rab-like protein 6 (RABL6) (Q3YEC7 whole entry): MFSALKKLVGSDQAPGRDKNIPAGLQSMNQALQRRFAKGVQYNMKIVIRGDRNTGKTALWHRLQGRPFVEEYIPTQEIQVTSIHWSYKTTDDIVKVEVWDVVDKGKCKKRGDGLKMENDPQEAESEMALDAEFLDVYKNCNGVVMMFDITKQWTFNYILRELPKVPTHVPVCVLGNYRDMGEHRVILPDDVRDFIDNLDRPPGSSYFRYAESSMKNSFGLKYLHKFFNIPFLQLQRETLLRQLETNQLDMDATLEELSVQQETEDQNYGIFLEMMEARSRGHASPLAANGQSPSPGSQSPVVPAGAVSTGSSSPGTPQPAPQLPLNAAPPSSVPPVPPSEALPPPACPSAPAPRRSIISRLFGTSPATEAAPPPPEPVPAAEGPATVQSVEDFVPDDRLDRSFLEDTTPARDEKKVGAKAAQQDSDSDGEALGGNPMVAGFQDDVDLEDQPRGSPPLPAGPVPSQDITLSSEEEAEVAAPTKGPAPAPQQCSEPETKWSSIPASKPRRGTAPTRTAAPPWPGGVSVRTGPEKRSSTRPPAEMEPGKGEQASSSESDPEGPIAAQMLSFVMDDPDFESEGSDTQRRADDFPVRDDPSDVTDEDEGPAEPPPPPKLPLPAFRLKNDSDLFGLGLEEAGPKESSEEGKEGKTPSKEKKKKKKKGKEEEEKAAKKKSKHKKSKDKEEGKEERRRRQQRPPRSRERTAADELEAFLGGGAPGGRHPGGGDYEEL
Chain of Ras GTPase-activating-like protein IQGAP1 (P46940 whole entry): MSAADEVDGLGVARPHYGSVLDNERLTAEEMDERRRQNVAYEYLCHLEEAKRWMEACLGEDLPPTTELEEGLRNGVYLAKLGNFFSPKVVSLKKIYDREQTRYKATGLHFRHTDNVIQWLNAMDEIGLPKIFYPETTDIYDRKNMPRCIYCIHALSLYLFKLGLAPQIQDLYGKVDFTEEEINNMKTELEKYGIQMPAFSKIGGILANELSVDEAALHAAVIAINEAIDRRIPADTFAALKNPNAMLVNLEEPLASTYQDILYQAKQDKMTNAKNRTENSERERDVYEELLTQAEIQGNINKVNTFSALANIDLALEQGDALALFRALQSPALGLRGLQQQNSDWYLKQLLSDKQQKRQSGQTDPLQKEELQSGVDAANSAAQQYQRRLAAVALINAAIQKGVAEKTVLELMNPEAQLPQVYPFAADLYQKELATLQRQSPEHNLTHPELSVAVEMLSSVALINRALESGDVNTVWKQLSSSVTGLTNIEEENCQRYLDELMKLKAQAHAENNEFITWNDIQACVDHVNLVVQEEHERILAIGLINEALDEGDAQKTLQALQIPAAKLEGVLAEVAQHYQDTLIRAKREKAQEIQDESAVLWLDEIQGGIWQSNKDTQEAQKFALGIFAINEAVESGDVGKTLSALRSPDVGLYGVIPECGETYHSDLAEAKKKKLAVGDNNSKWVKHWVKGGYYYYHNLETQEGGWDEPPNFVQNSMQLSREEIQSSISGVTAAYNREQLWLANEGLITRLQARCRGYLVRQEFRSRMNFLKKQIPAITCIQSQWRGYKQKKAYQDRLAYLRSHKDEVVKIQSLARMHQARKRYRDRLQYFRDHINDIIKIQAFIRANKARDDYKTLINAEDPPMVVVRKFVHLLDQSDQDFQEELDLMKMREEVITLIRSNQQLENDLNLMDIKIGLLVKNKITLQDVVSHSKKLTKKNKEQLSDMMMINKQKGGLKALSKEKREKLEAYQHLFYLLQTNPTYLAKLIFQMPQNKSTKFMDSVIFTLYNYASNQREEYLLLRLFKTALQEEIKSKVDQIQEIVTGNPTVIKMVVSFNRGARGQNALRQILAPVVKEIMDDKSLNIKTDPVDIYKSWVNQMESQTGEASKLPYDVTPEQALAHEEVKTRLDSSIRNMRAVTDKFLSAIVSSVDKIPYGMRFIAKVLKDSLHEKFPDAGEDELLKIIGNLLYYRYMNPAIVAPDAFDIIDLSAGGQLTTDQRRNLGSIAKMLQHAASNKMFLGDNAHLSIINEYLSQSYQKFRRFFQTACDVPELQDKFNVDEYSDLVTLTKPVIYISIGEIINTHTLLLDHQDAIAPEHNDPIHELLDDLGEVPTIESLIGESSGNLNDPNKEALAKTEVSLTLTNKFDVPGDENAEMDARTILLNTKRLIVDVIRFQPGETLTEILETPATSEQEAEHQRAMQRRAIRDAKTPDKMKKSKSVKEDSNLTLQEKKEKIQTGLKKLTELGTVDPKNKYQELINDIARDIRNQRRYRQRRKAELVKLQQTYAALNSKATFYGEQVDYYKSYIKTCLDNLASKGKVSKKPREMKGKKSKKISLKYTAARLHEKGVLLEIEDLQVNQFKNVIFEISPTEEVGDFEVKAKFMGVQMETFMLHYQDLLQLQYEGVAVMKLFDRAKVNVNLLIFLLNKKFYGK
Chain of T-complex protein 1 subunit theta (P50990 whole entry, one chain of several): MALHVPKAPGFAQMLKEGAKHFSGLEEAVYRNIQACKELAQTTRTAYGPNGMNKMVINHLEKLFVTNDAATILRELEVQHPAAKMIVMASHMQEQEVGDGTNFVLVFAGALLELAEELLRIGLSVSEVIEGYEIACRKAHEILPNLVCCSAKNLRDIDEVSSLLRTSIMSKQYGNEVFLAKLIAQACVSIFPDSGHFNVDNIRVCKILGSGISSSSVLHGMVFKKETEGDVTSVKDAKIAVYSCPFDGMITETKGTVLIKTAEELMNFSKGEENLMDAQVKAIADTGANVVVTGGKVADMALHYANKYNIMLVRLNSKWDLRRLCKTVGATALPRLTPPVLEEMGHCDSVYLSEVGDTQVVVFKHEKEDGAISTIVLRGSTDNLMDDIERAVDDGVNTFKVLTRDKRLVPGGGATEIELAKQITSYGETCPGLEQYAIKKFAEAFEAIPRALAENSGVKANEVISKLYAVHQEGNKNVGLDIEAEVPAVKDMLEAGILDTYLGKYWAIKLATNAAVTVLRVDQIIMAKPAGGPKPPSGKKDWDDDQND
Chain of Heterogeneous nuclear ribonucleoprotein U (HNRNPU) (Q00839 whole entry): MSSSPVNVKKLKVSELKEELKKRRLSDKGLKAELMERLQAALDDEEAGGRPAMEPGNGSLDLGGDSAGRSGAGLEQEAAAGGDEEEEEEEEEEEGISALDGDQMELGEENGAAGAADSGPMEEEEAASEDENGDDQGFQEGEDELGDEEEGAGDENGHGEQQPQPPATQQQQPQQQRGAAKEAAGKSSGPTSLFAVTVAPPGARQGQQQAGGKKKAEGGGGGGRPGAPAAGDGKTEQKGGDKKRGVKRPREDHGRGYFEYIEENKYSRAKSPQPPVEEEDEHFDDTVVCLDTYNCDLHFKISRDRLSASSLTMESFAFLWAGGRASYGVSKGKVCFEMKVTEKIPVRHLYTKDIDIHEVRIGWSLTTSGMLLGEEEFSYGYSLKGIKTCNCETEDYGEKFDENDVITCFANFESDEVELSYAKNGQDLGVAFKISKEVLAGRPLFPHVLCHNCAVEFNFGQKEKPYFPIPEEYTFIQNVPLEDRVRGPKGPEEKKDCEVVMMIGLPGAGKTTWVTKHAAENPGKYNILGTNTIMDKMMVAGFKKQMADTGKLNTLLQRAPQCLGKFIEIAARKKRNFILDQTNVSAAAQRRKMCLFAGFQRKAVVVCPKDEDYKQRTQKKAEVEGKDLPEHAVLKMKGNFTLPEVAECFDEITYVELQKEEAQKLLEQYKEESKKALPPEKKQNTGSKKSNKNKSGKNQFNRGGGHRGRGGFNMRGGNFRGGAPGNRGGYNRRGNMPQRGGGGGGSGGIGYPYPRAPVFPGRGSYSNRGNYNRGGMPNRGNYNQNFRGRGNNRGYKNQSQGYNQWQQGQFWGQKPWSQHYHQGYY

CC1CCC2(C(=O)OCCCCOC(=O)CCCCC3SCC4NC(=O)NC43)CCC3(C)C(=CCC4C5(C)CCC(O)C(C)(C)C5CCC43C)C2C1C [Compound 5c, 4-((5-((3aS,4S,6aR)-2-Oxohexahydro-1H-thieno [3,4-d]imidazol-4-yl)pentanoyl)oxy) butyl 3-hydroxy-urs-12-en-28-oate]
Fold Change 10 min/Ctrl [1]: 0
Fold Change 1 h/Ctrl [1]: 2
Fold Change 10 min/Ctrl (DNA topoisomerase): 0.08
Fold Change 1 h/Ctrl (DNA topoisomerase): 0.11
Fold Change 10 min/Ctrl [2]: 22
Fold Change 1 h/Ctrl [2]: 19
Fold Change 10 min/Ctrl [3]: 14
Fold Change 1 h/Ctrl [3]: 7
Fold Change 10 min/Ctrl (ATP synthase subunit O): 3
Fold Change 1 h/Ctrl (ATP synthase subunit O): 3
Fold Change 10 min/Ctrl [4]: 1.63
Fold Change 1 h/Ctrl [4]: 2
Fold Change 10 min/Ctrl [5]: 3.29
Fold Change 1 h/Ctrl [5]: 5
Fold Change 10 min/Ctrl [6]: 8
Fold Change 1 h/Ctrl [6]: 7
Fold Change 10 min/Ctrl (HSP 90-alpha (HSP90α)): 119
Fold Change 1 h/Ctrl (HSP 90-alpha (HSP90α)): 111
Fold Change 10 min/Ctrl (HSP 90-beta (HSP90β)): 93
Fold Change 1 h/Ctrl (HSP 90-beta (HSP90β)): 97
Fold Change 10 min/Ctrl [7]: 4.33
Fold Change 1 h/Ctrl [7]: 4.33
Fold Change 10 min/Ctrl [8]: 3.48
Fold Change 1 h/Ctrl [8]: 3.04
Fold Change 10 min/Ctrl (Histone H2A.Z): 5.85
Fold Change 1 h/Ctrl (Histone H2A.Z): 4.78
Fold Change 10 min/Ctrl [9]: 1.33
Fold Change 1 h/Ctrl [9]: 2.67
Fold Change 10 min/Ctrl [10]: 3.5
Fold Change 1 h/Ctrl [10]: 2.25
Fold Change 10 min/Ctrl [11]: 6
Fold Change 1 h/Ctrl [11]: 6
Fold Change 10 min/Ctrl [12]: 14
Fold Change 1 h/Ctrl [12]: 12
